Measurements taken from patent publication US5324725A, “7-fused 2-(piperazinoalkyl) indole derivatives, intermediates and compositions thereof” (Kali-Chemie Pharma GmbH, priority 1991, dated 1994).
Like-named read-outs stand apart in the source and are kept apart here.

Legend:
cyclooxygenase = target: T1, cyclooxygenase (Mus musculus, UniProt P22437); experiment: Cyclooxygenase inhibition: release of 6-keto-PGF1 α from zymosan-stimulated mouse peritoneal macrophage cells; type: cell-based; conditions: 10^-5 mol/l, read-out: In vitro % inhibition effect on the release of 6-keto-PGF1 α
T1 construct: A cell suspension containing peritoneal cells of male mice 8-10 weeks old was obtained; endogenous in cells; host or cells: mouse peritoneal macrophages (male mice 8-10 weeks old), zymosan-stimulated
T1 sequence (P22437 27-602): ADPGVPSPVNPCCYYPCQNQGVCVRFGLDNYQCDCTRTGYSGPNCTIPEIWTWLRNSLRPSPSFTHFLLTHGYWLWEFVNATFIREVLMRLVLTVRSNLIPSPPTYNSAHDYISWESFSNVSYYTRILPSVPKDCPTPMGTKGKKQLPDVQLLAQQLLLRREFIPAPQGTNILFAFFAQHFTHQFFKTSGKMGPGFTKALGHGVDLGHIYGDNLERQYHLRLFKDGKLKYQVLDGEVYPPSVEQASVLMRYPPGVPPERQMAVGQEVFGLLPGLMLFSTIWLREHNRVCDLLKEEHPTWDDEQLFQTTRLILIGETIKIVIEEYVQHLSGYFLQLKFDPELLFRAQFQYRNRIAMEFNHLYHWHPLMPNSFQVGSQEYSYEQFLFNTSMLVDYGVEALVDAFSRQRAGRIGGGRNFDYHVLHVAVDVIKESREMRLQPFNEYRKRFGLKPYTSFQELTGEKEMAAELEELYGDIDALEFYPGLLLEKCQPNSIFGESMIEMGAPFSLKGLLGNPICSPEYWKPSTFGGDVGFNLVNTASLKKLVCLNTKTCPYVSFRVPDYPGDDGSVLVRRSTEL
From the text: 5. In vitro determination of cyclooxygenase inhibition and 5-lipoxygenase inhibition.
After activation of the cell, arachidonic acid contained in cell membranes is metabolized in two ways. Leukotrienes, inter alia leukotriene C4, are formed under the action of the enzyme 5-lipoxygenase (5-LO), and prostanoids are formed under the action of the enzyme cyclooxygenase (CO). In in vitro systems, the metabolites are secreted from the cell.
To investigate the cyclooxygenase-inhibiting and the 5-lipoxygenase-inhibiting properties, the inhibitory effect of the test substances on the biosynthesis of the arachidonic acid derivatives leukotriene C4 (LTC4) and 6-ketoprostaglandin F1 α (6-keto-PGF1 α) is determined in vitro on mouse peritoneal macrophage cells. This was accomplished by determining the LTC4 and 6-keto-PGF1 α contents in a culture medium of mouse peritoneal macrophage cells by zymosan stimulation as described by Scott et al. (J. Exp. Med. 152 (1980), 324-335) and by Fradin et al. (Prostaglandins, 33 (1987), 579-589).
A cell suspension containing peritoneal cells of male mice 8-10 weeks old was obtained in a known manner. A commercially available cell culture solution (RPMI 1640 from Messrs. Gibco) was used to which heparin (I0 international units/ml) and antibiotics were added according to the recipe of Bonney et al. (Biochem. J. 176 (1978) 422-433). The cell suspension was adjusted to a cell concentration of 10^6 cells per ml and distributed uniformly on titer plates containing […] (wells). These were kept for two hours in a humidified incubator filled with air enriched with 7% CO2. Cells not adhering to the titer cell walls were then removed by washing. The remaining macrophage cells adhering to the walls were incubated for about 12 hours in a suspension medium to which 0.1% bovine serum albumin (BSA) were added. The suspension medium was then replaced by a Hanks balanced salt solution (HBSS) containing 10 mM Hepes (hydroxyethyl-piperazinoethanesulfonic acid), to which a 0.1% strength solution of the test substances in aqueous, 1% strength dimethylformamide or only the solvent had been added. After 15 minutes the arachidonic acid metabolism was stimulated by adding 10 particles of zymosan (=glycoproteinmixture, isolated from cell walls of beer yeast, Saccharomyces cerevisiae, manufactured by Sigma Chemical Co., Munich) per titer cell. After 2 hours, samples of each of the supernatant liquids were investigated for their 6-keto-PGF1 α and LTC4 contents by means of an enzyme immunoassay (EIA) carried out by the method of Pradelles et al. (Analytical Chem. 57 (1985), 1170-1173). The determination of LTC4 and the determination of 6-keto-PGF1 α were each carried out in comparison with a comparative scale on suitable dilutions of the samples (1:50 to 1:250 for the LTC4 determination and 1:250 to 1:1250 for the 6-keto-PGF1 α determination). To determine the inhibitory effect of a 10^-5 molar concentration of the compounds, the amount of reference eicosanoids was determined and the inhibitory effect was calculated from this in % inhibition compared to the measurements of the zymosan controls.

histamine (H1) receptor = target: T2, histamine (H1) receptor (Cavia porcellus, UniProt P31389); experiment: Antihistamine (H1) effect: inhibition of histamine-induced contractions of isolated guinea-pig ileum in vitro; type: cell-based, guinea-pig (Dunkin Hartley); conditions: histamine 5 × 10^-6 mol/l, test substance 10^-6 mol/l
T2 construct: isolated smooth muscle of the guinea-pig ileum; from tissue; host or cells: isolated ileum segments of Dunkin Hartley guinea-pigs
T2 sequence (P31389 whole entry): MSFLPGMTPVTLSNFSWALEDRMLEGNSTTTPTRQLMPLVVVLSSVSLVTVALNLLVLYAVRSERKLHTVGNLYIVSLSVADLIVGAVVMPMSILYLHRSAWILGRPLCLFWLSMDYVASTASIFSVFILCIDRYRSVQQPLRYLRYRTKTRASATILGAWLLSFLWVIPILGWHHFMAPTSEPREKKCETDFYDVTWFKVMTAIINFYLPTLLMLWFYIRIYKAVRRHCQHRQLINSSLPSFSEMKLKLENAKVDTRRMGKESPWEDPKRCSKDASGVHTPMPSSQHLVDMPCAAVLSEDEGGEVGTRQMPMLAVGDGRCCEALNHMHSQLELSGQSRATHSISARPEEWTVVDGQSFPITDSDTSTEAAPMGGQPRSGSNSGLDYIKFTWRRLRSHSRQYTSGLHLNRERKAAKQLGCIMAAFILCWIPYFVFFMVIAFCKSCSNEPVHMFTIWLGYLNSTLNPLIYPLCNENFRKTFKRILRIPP
Procedure, shortened: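 Dunkin Hartley guinea-pig ileum segments (300-500 g animals) in Krebs-Henseleit, pH 7.4, 5% CO2/95% O2, 1 g tension, isotonic recording. Compound at 10^-6 mol/l for 30 s before histamine 5×10^-6 mol/l; contraction measured over 30 s, repeated 10 min after washout, expressed as % inhibition.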

[1] = after 30 sec., read-out: in vitro (H1) receptor antagonism % inhibitory effect on histamine-induced contractions of the Ileum, after 30 sec.
[2] = after 10 min. (after washing), read-out: in vitro (H1) receptor antagonism % inhibitory effect on histamine-induced contractions of the Ileum, after 10 min.

SMILES	inhibition at 10 µM (cyclooxygenase) [%]	inhibition at 1 µM (histamine (H1) receptor; [1]) [%]	inhibition at 1 µM (histamine (H1) receptor; [2]) [%]
Cc1ccnc(N2CCN(CCc3c(C)n4c5c(c(C(O)C(C)C)ccc35)SCC4)CC2)c1 (stereo not shown) [Example 89]	32	–	–
Cc1ccnc(N2CCN(CCc3c(C)n4c5c(cc(NC(=O)c6ccccc6)cc35)CCC4)CC2)c1 [Example 25, 8-Benzoylamino-5,6-dihydro-2-methyl-1-{2-[4-(4-methylpyridin-2-yl)piperazin-1-yl]-ethyl}-4H-pyrrolo[3,2,1-ij]quinoline]	24	10	77
Cc1ccnc(N2CCN(CCc3c(-c4ccc(O)cc4)n4c5c(cccc35)CCC4)CC2)c1 [Example 8, 2-(4-hydroxyphenyl)-1-{2-[4-(4-methylpyridin-2-yl)piperazin-1-yl]ethyl}-5,6-dihydro-4H-pyrrolo[3,2,1-ij]quinoline]	74	–	–
C=CCCC1CCc2cccc3c(CCN4CCN(c5cc(C)ccn5)CC4)c(C)n1c23 (stereo not shown) [Example 62]	64	13	72
CCCCCCCC1CCc2cccc3c(CCN4CCN(c5cc(C)ccn5)CC4)c(C)n1c23 (stereo not shown) [Example 4, 4-n-heptyl-5,6-dihydro-2-methyl-1-{2-[4-(4-methylpyridin-2-yl)piperazin-1-yl]ethyl}-4H-pyrrolo[3,2,1-ij]-quinoline]	20	–	–
Cc1ccnc(N2CCN(CCc3c(C)n4c5c(cccc35)CCC4C3CCCCC3)CC2)c1 (stereo not shown) [Example 87]	20	–	–
Cc1ccnc(N2CCN(CCc3c(C)n4c5c(cccc35)CCC4)CC2)c1 [Example 1, 5,6-Dihydro-2-methyl-1-{2-[4-(4-methylpyridin-2-yl)piperazin-1-yl]ethyl}-4H-pyrrolo[3,2,1-ij]quinoline]	23	42	88
CCCCC1CCc2cccc3c(CCN4CCN(c5cc(C)ccn5)CC4)c(C)n1c23 (stereo not shown) [Example 73, 4-n-butyl-5,6-dihydro-2-methyl-1-{2-[4-(4-methylpyridin-2-yl)piperazin-1-yl]ethyl}-4H-pyrrolo[3,2,1-ij]quinoline]	29	–	–
CCCCC1CCc2cc(C(=O)C(C)C)cc3c(CCN4CCN(c5cc(C)ccn5)CC4)c(C)n1c23 (stereo not shown) [Example 23, 4-n-Butyl-5,6-dihydro-8-(2-methyl-1-oxopropyl)-2-methyl-1-{2-[4-(4-methylpyridin-2-yl)piperazin-1-yl]ethyl}-4H-pyrrolo[3,2,1-ij]quinoline]	43	7	38
Cc1c(CCN2CCN(c3ccccn3)CC2)c2cccc3c2n1CCC3 [Example 37]	32	24	61
Cc1ccnc(N2CCN(CCc3c(C)n4c5c(cccc35)CCC4c3ccc(O)cc3)CC2)c1 (stereo not shown) [Example 61]	65	–	–
CC(C)=Cc1cc2c3c(c1)c(CCN1CCN(c4cc(C)ccn4)CC1)c(C)n3CCC2 [Example 26, 5,6-Dihydro-2-methyl-8-(2-methylprop-1-enyl)-1-{2-[4-(4-methylpyridin-2-yl)piperazin-1-yl]ethyl}-4H-pyrrolo[3,2,1-ij]quinoline]	68	15	42
COc1ccc(C2CCc3cc(OC)cc4c(CCN5CCN(c6cc(C)ccn6)CC5)c(C)n2c34)cc1 (stereo not shown) [Example 65]	52	21	48
Cc1ccnc(N2CCN(CCc3c(C)n4c5c(ccc(C(O)C(C)C)c35)SCC4)CC2)c1 (stereo not shown) [Example 90]	56	19	88
Cc1c(CCN2CCN(c3ccc(Br)cn3)CC2)c2cccc3c2n1CCC3 [Example 43]	57	11	23
Cc1ccnc(N2CCN(CCc3c(C)n4c5c(cccc35)CCC4c3ccccc3)CC2)c1 (stereo not shown) [Example 3, 5,6-dihydro-2-methyl-4-phenyl-1-{2-[4-(4-methylpyridine-2-yl)piperazin-1-yl]-ethyl}-4H-pyrrolo[3,2,1-ij]quinoline]	20	15	57
Cc1cc2c3c(c1)c(CCN1CCC(C(=O)c4ccc(F)cc4)CC1)c(C)n3CCC2 [Example 55]	41	–	–
COc1ccc(-c2c(CCN3CCN(c4cc(C)ccn4)CC3)c3cccc4c3n2CCC4)cc1 [Example 7, 2-(4-methoxy-phenyl)-1-{2-[4-(4-methylpyridin-2-yl)piperazin-1-yl]ethyl}-5,6-dihydro-4H-pyrrolo[3,2,1-ij]quinoline]	49	–	–
Cc1ccnc(N2CCN(CCc3c(C)n4c5c(cccc35)CC4C)CC2)c1 (stereo not shown) [Example 33]	21	45	96
Cc1ccnc(N2CCN(CCc3c(C)n4c5c(cc(C(O)C(C)C)cc35)CCC4)CC2)c1 (stereo not shown) [Example 19, 5,6-Dihydro-8-(1-hydroxy-2-methylpropyl)-2-methyl-1-{2-[4-(4-methylpyridin-2-yl)piperazin-1-yl]ethyl}-4H-pyrrolo-[3,2,1-ij]quinoline]	5	26	83
Cc1ccnc(N2CCN(CCc3c(C)n4c5c(cc(Cc6ccccc6)cc35)CCC4)CC2)c1 [Example 77]	42	–	–
Cc1ccnc(N2CCN(CC(O)c3c(C4CCCCC4)n4c5c(cccc35)CCC4)CC2)c1 (stereo not shown) [Example 85]	52	–	–
Cc1ccnc(N2CCN(CCc3c(C)n4c5c(c(Cl)cc(Cl)c35)OCC4)CC2)c1 [Example 79]	52	–	–
Cc1ccnc(N2CCN(CCc3c(-c4ccc(OCCCCO)cc4)n4c5c(cccc35)CCC4)CC2)c1 [Example 12, 2-[4-(4-Hydroxybutyloxy)-phenyl]-1-{2-[4-(4-methylpyridin-2-yl)piperazin-1-yl]ethyl}-5,6-dihydro-4H-pyrrolo[3,2,1-ij]quinoline]	53	–	–
COc1ccc(C2CCc3cccc4c(CCN5CCN(c6cc(C)ccn6)CC5)c(C)n2c34)cc1 (stereo not shown) [Example 59]	43	–	–
Cc1ccnc(N2CCN(CCc3c(C)n4c5c(cc(N(C)C)cc35)CCC4)CC2)c1 [Example 81]	16	–	–
CCc1c(C(O)CN2CCN(c3cc(C)ccn3)CC2)c2cccc3c2n1CCC3 (stereo not shown) [Example 14, 2-Ethyl-5,6-dihydro-1-{2-[4-(4-methylpyridin-2-yl)piperazin-1-yl]-1-hydroxyethyl}-4H-pyrrolo[3,2,1-ij]quinoline]	25	–	–
Cc1ccnc(N2CCN(CCc3c(-c4ccc(F)cc4)n4c5c(cccc35)CCC4)CC2)c1 [Example 47]	69	–	–
